This passage reports IC50 results from PMC7265491, “Inhibition of LIPG phospholipase activity suppresses tumor formation of human basal-like triple-negative breast cancer” (Scientific Reports, 2020).

In general, pIC50 refers to the IC50 on a negative log10 scale, so that one unit is a factor of ten.

The assay concerns the target T1, LIPG (endothelial lipase) (Homo sapiens, UniProt Q9Y5X9).
T1 construct: LIPG overexpressed in MDA-MB-468 cells
T1 sequence (Q9Y5X9 21-500): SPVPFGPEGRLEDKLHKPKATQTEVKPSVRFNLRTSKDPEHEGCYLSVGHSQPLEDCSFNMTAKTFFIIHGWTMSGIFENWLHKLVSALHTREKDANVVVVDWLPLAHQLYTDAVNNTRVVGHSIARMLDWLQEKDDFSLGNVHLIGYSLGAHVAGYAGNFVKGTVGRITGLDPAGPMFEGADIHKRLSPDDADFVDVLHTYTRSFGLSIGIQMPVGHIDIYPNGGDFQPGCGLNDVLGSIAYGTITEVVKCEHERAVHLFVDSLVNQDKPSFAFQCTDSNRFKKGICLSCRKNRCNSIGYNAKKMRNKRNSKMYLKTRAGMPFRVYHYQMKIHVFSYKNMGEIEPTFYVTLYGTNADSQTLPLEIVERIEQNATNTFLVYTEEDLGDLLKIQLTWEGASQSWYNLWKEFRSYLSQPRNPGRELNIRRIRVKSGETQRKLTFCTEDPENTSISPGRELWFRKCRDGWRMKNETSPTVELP
Put plainly: cell-based fluorogenic phospholipase A1 assay (PED-A1 substrate) with LIPG-overexpressing MDA-MB-468 cells, parental-cell background subtracted.

pIC50: −log10 of the molar value.

As for `O=C(O)c1cc(C(F)(F)F)ccc1N1CC[C@H](OCc2ccccn2)C1` [XEN445], the negative logarithm of the IC50 (pIC50) is 5.66.
